Measured values reported in patent publication US20260007625A1, “Compounds for the Treatment of Neuromuscular Disorders” (NMD PHARMA A/S, priority 2022, published 2026).
pEC50: −log10 of the molar value.

Legend:
[1] = biological target: T1, CIC-1 ion channel (Rattus norvegicus, UniProt P35524); assay: Electrophysiological measurement (Gm, three micro-electrodes) of compound inhibition of CIC-1 in rat soleus muscle fibres; format: cell-based; conditions: Gm in whole rat soleus muscle fibres, approx. 30° C., four increasing compound concentrations
T1 construct: from tissue; host or cells: intact soleus muscle of 12-14 week old Wistar rats
T1 sequence (P35524 1-994): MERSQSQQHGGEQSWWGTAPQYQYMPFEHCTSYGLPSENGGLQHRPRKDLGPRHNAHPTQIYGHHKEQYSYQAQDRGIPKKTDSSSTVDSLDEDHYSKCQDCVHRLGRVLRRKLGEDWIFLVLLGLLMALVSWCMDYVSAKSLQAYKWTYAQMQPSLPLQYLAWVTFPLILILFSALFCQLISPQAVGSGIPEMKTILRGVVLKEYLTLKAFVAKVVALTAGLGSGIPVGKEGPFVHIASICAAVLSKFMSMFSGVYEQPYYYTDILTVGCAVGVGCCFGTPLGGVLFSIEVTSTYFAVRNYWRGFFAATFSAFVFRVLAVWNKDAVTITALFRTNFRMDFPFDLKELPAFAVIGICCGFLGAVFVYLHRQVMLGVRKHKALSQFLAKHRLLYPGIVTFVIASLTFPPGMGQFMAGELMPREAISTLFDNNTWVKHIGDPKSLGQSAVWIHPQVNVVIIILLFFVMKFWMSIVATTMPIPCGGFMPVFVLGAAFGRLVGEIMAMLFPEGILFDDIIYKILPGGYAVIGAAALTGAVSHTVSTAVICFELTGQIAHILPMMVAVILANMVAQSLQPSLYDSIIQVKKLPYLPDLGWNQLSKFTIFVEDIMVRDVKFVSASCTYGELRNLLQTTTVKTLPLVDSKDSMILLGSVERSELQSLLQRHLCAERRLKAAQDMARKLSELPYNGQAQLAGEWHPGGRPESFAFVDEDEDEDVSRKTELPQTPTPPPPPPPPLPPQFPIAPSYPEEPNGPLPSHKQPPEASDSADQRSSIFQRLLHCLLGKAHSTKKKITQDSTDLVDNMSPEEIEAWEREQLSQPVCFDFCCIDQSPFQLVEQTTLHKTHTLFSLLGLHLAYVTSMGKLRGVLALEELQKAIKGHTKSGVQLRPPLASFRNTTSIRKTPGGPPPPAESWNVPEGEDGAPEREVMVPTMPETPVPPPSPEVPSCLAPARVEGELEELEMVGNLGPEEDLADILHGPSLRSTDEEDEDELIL
Description: Apparent CIC-1 affinity was reported by the concentration of compound at which 50% of the compound's full inhibition of CIC-1 was observed (EC50).
Experimentally, Gm was measured in individual fibres of whole rat soleus muscles using a three micro-electrodes technique described in this example and in full detail elsewhere (Riisager et al., Determination of cable parameters in skeletal muscle fibres during repetitive firing of action potentials. Journal of Physiology, 2014, 592, 4417-4429). Briefly, intact rat soleus muscles were dissected out from 12-14 week old Wistar rats and placed in an experimental chamber that was perfused with a standard Krebs Ringer solution containing 122 mM NaCl, 25 mM NaHCO3, 2.8 mM KCl, 1.2 mM KH2PO4, 1.2 mM MgSO4, 1.3 mM CaCl2), 5.0 mM D-glucose. During experiments, the solution was kept at approx. 30° C. and continuously equilibrated with a mixture of 95% O2 and 5% CO2, PH ˜7.4. The experimental chamber was placed in Nikon upright microscope that was used to visualize individual muscle fibres and the three electrodes (glass pipettes filled with 2 M potassium citrate). For Gm measurements, the electrodes were inserted into the same fibre with known inter-electrode distances of 0.35-0.5 mm (V1-V2, X1) and 1.1-1.5 mm (V1-V3, X3). The membrane potential of the impaled muscle fibre was recorded by all electrodes. Two of the electrodes were furthermore used to inject 50 ms current pulses of −30 nA. […] The steady state voltage deflection at each distance was divided by the magnitude of current injected (−30 nA) and the resulting transfer resistances were plotted against inter-electrode distance and the data was fitted to a mono-exponential function from which Gm could be calculated using linear cable theory.
To establish a dose response relationship, Gm was first determined in 10 muscle fibres in the absence of compound and then at four increasing compound concentrations with Gm determinations in 5-10 fibres at each concentration. The average Gm values at each concentration were plotted against compound concentration and the data was fitted to sigmoidal function to obtain an EC50 value.

[2] = system: isolated rat soleus muscles exposed to tubocurarine; assay: Recovery of nerve-stimulated contractile force in isolated rat soleus nerve-muscle preparation after tubocurarine; conditions: tubocurarine 115 nM, after 40 mins of compound exposure
Description: The current disclosure relates to compounds that inhibit CIC-1 ion channels and increase muscle excitability and thereby improve muscle function in clinical conditions where muscle activation is failing. Such conditions result in loss of contractile function of skeletal muscle, weakness and excessive fatigue. In this series of experiments the compounds were tested for their ability to restore contractile function of isolated rat muscle when the neuromuscular transmission had been compromised akin to neuromuscular disorders.
Experimentally, soleus muscles from 4-5 week old rats were isolated with the motor nerve remaining attached. The nerve-muscle preparations were mounted in experimental setups that enabled electrical stimulation of the motor nerve. Stimulation of the motor nerve led to activation of the muscle fibres and ensuing force production that was recorded. The nerve-muscle preparations were also in these experiments incubated in the standard Krebs Ringer (see example 15) and the solution was heated to 30° C. and continuously equilibrated with a mixture of 95% O2 and 5% CO2, PH ˜7.4.
After mounting the nerve-muscle preparation in the experimental setup, the contractile function of the muscle was initially assessed under the control conditions. Sub-maximal concentration of tubocurarine (115 nM), an acetylcholine receptor antagonist, was then added to the experimental bath to impose partial inhibition of the ability of the motor nerve to activate the muscle fibres. The experimental condition mimics the failing neuromuscular transmission in a range of neuromuscular disorders. After addition of tubocurarine the contractile force declined over the next 90 minutes to 10-50% of the control force. The test compound was then added to obtain the required compound concentration in the bath and the contractile force recovered was measured. To quantify the ability of the compound to restore force the percentage of the initial force that was restored was determined after 40 mins of compound exposure and the point increase is reported in Table 2.

[3] = system: Lewis rats; assay: In situ isometric hindlimb force in anaesthetised rats under partial neuromuscular block by Cisatracurium; format: in vivo, rat; conditions: sodium salt, 80 Hz stimulation, Cisatracurium infusion
Description: Isometric hindlimb force was measured in 12-week old female Lewis rats in the presence and absence of compound.
Rats were placed under anaesthesia with isoflurane (2-4%), intubated and subsequently connected to a micro ventilator (Microvent 1, Hallowell EMC, US). Two stimulation electrodes were inserted through the skin to stimulate the sciatic nerve. A small incision was made proximal to the ankle, to expose the Achilles tendon, which was tied by cotton string, and connected to a force transducer (Fort250, World Precision Instruments) with adjustable position (Vernier control). The Achilles tendon was then cut distal to the attached cotton string. […]
Muscle contractile properties were assessed by applying an electrical current (under supramaximal voltage conditions) to the nerve and recording the force generated by the muscle. The muscle was stretched until maximal force was obtained, when assessed by 2 Hz stimulation. Isometric force was measured every 30 seconds at 12 Hz (Twitch), 10 pulses, and at every 5 minutes at 80 Hz (Tetanic) for 1 second (80 pulses). […] The effect of test article was assessed on its ability to increase force generated from the stimulation pattern applied. The effect was assessed in the ability to increase force per se (tetanic, 80 Hz, stimulation), and the ratio between individual twitch peaks (12 Hz stimulation). […]

Structure (SMILES) | pEC50 [1] | Point increase, percentage of initial force that was restored ([2]; test compound 10 μM) | Point increase, percentage of initial force that was restored ([2]; test compound 50 μM) | also measured
COc1c(Br)cc(C)c(C)c1C(=O)O [Compound A-13, 3-bromo-2-methoxy-5,6-dimethylbenzoic acid] | 5.36 | 29% |  | 
CCOc1c(Cl)cc(C)c(C)c1C(=O)O [Compound A-12, 3-chloro-2-ethoxy-5,6-dimethylbenzoic acid] |  |  | 39% | 
Cc1cc(Cl)c(OC(F)F)c(C(=O)O)c1C [Compound A-9, 3-chloro-2-(difluoromethoxy)-5,6-dimethylbenzoic acid] | 5.37 |  | 50% | 
Cc1cc(Cl)c(OCF)c(C(=O)O)c1C [Compound A-10, 3-chloro-2-(fluoromethoxy)-5,6-dimethylbenzoic acid] | 5.39 | 21% |  | 
COc1c(C)cc(Cl)c(OC)c1C(=O)O [Compound A-7, 3-chloro-2,6-dimethoxy-5-methylbenzoic acid] | 5.28 |  | 44% | increase in tetanic force ([3]; 2.5 mg/kg i.v. in PBS): 27%
CSc1c(Cl)cc(C)c(C)c1C(=O)O [Compound A-8, 3-chloro-5,6-dimethyl-2-(methylsulphanyl)benzoic acid] | 5.49 | 24% |  | 
COc1c(F)cc(Br)c(OC)c1C(=O)O [Compound A-2, 3-bromo-5-fluoro-2,6-dimethoxybenzoic acid] |  |  |  | Point increase, percentage of initial force that was restored ([2]; test compound 100 μM): 16%
COc1c(Cl)cc(Cl)c(OC)c1C(=O)O [Compound A-3, 3,5-Dichloro-2,6-dimethoxybenzoic acid] | 5.13 |  | 46% | 
COc1c(C)cc(F)c(OC)c1C(=O)O [Compound A-1, 3-fluoro-2,6-dimethoxy-5-methylbenzoic acid] |  |  | 19% | 
Cc1cc(Cl)c(OC2CC2)c(C(=O)O)c1C [Compound A-5, 3-chloro-2-cyclopropoxy-5,6-dimethylbenzoic acid] | 5.18 |  | 48% | 
Cc1cc(Cl)c(OC(F)(F)F)c(C(=O)O)c1C [Compound A-4, 3-chloro-5,6-dimethyl-2-(trifluoromethoxy)benzoic acid] | 5.77 | 23% |  | 
COc1c(Cl)cc(C)c(C)c1C(=O)O [Compound A-14, 3-chloro-2-methoxy-5,6-dimethylbenzoic acid] | 5.49 |  | 44% | increase in tetanic force ([3]; 10 mg/kg p.o. in PBS): 45%
COc1c(F)cc(C)c(C)c1C(=O)O [Compound A-11, 3-fluoro-2-methoxy-5,6-dimethylbenzoic acid] |  |  | 25% | 
COc1c(Cl)cc(C)c(Cl)c1C(=O)O [Compound A-6, 2,5-dichloro-6-methoxy-3-methylbenzoic acid] | 5.24 | 28% |  | 
